# Measurements taken from patent publication EP4678638A1, “NEW E3 UBIQUITIN LIGASE LIGAND, PROTEIN DEGRADATION AGENT AND USE THEREOF” (priority 2023, dated 2024).
# Read-outs that look alike come from different tables or passages of the source.
# Tests used:
# CK1a = molecular target: T1, CK1a (Homo sapiens, UniProt P48729+Q96SW2); assay: Western blot degradation of CK1a (hPBMC); type: cell-based; settings: Table D16
# T1 construct: evaluate the effects of the compounds of the present disclosure on the expression of target proteins in cells; endogenous in cells; host or cells: hPBMC
# Summary of the method: (§1)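 After compound exposure, cells were harvested and lysates run on SDS-PAGE, transferred to nitrocellulose and probed with antibodies. Remaining target (%) was computed from band grayscale relative to an internal control protein and normalised; degradation (%) was 100% minus that.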
# IKZF2 = molecular target: T2, IKZF2 (Homo sapiens, UniProt Q96SW2+Q9UKS7); assay: Western blot degradation of IKZF2 (hPBMC); type: cell-based; settings: Table D16
# T2 construct: evaluate the effects of the compounds of the present disclosure on the expression of target proteins in cells; endogenous in cells; host or cells: hPBMC
# T2 sequence (Q9UKS7 whole entry): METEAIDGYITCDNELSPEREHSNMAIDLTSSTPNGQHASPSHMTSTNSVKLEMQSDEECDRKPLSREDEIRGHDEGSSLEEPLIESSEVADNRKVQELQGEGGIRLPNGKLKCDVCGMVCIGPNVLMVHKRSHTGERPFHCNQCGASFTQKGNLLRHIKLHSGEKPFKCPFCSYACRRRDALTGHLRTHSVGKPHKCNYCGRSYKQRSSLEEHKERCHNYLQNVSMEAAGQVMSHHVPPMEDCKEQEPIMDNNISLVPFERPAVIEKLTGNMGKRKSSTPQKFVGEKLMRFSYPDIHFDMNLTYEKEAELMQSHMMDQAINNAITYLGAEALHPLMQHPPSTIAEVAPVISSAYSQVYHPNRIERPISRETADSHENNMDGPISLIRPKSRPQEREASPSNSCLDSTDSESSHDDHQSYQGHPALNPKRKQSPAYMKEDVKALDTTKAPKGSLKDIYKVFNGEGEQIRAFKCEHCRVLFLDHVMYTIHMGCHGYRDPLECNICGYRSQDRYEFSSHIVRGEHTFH
# T2 sequence (Q96SW2 whole entry): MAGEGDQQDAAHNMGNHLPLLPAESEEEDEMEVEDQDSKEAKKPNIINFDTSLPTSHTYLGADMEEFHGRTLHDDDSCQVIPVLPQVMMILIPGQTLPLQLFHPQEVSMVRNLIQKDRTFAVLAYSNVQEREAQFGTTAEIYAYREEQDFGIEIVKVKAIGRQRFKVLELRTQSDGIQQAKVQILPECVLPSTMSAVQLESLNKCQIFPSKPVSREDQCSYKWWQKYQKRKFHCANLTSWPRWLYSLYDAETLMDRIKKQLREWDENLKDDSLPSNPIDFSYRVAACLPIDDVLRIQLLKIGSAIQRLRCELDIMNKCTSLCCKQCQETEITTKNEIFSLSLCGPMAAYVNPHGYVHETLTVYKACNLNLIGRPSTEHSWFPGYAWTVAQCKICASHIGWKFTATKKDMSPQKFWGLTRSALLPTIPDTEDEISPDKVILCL
# T2 sequence (Q16531 whole entry partner): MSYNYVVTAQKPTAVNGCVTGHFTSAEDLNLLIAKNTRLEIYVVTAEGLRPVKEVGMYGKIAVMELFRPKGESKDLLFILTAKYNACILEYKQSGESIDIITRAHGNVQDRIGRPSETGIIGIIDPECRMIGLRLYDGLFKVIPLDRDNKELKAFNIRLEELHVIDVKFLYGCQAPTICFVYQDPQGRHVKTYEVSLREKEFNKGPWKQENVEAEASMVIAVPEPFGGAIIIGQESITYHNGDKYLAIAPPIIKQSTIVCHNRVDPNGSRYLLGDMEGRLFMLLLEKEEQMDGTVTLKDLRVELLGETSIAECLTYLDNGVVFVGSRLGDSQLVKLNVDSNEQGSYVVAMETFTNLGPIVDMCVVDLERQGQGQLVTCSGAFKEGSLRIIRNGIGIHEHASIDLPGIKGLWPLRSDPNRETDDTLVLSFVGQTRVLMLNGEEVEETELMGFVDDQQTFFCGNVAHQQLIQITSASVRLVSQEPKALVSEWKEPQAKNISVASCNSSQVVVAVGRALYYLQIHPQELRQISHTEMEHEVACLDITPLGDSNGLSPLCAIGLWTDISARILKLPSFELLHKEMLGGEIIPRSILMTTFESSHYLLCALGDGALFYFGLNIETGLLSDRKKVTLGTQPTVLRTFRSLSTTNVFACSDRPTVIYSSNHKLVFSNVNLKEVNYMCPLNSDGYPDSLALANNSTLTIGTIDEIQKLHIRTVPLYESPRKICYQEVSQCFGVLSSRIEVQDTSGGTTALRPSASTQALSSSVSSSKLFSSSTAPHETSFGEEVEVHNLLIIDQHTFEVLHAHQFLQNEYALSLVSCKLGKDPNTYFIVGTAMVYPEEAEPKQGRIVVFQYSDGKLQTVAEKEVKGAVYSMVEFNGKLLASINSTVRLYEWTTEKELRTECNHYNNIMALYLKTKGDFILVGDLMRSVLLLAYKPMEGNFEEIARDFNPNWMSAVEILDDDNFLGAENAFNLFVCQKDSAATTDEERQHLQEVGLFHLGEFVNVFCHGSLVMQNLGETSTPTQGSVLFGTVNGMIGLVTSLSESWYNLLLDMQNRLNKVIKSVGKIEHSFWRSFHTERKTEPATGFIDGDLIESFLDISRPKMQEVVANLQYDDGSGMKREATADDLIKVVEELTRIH
# Summary of the method: as §1
# MCF7 = assay: CCK-8 proliferation, MCF7 (MCF-7); type: cell-based; settings: Homo sapiens
# Summary of the method: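 Tumor cells were cultured at 37°C with 5% CO2, seeded, and after 24h treated with compounds at 10 concentrations starting at 10µM (5-fold serial dilutions).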
# IKZF3 = molecular target: T3, IKZF3 (Homo sapiens, UniProt Q96SW2+Q9UKT9); assay: Western blot degradation of IKZF3 (hPBMC); type: cell-based; settings: Table D16
# T3 construct: evaluate the effects of the compounds of the present disclosure on the expression of target proteins in cells; endogenous in cells; host or cells: hPBMC
# T3 sequence (Q9UKT9 whole entry): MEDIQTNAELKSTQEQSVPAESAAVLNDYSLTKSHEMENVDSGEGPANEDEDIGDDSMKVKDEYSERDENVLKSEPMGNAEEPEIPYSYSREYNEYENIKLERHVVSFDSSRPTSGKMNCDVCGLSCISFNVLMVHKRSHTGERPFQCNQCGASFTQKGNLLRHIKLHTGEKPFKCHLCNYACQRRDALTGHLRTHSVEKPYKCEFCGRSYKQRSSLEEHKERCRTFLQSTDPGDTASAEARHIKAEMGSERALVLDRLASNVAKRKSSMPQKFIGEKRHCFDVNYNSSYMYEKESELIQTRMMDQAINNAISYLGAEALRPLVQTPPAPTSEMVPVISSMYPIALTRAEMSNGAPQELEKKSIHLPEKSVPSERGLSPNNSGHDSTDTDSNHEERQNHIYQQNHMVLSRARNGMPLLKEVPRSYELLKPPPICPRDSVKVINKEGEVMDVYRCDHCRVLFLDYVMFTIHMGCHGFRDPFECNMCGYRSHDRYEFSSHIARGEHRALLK
# T3 sequence (Q96SW2 whole entry): as the sequence (Q96SW2 whole entry) above
# T3 sequence (Q16531 whole entry partner): as the sequence (Q16531 whole entry partner) above
# Summary of the method: as §1
# GSPT1 = molecular target: T4, GSPT1 (Homo sapiens, UniProt P15170+Q96SW2); assay: Western blot degradation of GSPT1 (hPBMC); type: cell-based; settings: Table D16
# T4 construct: evaluate the effects of the compounds of the present disclosure on the expression of target proteins in cells; endogenous in cells; host or cells: hPBMC
# T4 sequence (P15170 whole entry): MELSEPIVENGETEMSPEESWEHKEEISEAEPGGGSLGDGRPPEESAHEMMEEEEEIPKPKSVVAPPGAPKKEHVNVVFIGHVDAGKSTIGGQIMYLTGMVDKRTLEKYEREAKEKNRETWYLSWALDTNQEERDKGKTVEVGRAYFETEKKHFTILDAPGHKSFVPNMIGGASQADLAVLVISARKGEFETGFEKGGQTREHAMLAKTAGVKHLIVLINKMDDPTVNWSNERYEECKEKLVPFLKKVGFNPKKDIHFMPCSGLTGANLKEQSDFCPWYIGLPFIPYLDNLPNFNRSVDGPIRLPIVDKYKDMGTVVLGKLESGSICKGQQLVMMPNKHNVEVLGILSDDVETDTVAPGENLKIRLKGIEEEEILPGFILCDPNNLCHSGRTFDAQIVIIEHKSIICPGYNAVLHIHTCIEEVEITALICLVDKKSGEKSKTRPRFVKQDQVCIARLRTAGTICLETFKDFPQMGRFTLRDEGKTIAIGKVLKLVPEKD
# T4 sequence (Q96SW2 whole entry): as the sequence (Q96SW2 whole entry) above
# T4 sequence (Q16531 whole entry partner): as the sequence (Q16531 whole entry partner) above
# Summary of the method: as §1
# WEE1 = molecular target: T5, WEE1 (Homo sapiens, UniProt P30291+Q96SW2); assay: Western blot degradation of WEE1 (hPBMC); type: cell-based; settings: Table D16
# T5 construct: evaluate the effects of the compounds of the present disclosure on the expression of target proteins in cells; endogenous in cells; host or cells: hPBMC
# T5 sequence (P30291 whole entry): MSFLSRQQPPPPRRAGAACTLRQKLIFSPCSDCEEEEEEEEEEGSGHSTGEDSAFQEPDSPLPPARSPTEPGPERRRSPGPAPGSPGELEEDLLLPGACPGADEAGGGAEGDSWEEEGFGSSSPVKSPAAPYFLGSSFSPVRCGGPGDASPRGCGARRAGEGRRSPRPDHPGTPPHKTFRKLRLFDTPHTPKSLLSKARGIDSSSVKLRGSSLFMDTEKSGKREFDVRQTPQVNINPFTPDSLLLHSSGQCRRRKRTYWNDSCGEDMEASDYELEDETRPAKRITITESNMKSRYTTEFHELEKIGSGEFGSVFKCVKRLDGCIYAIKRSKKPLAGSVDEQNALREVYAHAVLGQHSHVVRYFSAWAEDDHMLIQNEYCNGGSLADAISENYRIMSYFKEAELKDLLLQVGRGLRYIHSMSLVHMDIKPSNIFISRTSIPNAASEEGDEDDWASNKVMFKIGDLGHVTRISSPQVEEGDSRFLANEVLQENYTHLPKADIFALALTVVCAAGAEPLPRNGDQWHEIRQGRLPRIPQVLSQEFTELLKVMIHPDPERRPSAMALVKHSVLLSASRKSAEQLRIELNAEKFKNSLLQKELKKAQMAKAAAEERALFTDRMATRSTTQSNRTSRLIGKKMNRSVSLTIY
# T5 sequence (Q96SW2 whole entry): as the sequence (Q96SW2 whole entry) above
# T5 sequence (Q16531 whole entry partner): as the sequence (Q16531 whole entry partner) above
# Summary of the method: as §1
# IKZF1 = molecular target: T6, IKZF1 (Homo sapiens, UniProt Q13422+Q96SW2); assay: Western blot degradation of IKZF1 (hPBMC); type: cell-based; settings: Table D16
# T6 construct: evaluate the effects of the compounds of the present disclosure on the expression of target proteins in cells; endogenous in cells; host or cells: hPBMC
# T6 sequence (Q13422 whole entry): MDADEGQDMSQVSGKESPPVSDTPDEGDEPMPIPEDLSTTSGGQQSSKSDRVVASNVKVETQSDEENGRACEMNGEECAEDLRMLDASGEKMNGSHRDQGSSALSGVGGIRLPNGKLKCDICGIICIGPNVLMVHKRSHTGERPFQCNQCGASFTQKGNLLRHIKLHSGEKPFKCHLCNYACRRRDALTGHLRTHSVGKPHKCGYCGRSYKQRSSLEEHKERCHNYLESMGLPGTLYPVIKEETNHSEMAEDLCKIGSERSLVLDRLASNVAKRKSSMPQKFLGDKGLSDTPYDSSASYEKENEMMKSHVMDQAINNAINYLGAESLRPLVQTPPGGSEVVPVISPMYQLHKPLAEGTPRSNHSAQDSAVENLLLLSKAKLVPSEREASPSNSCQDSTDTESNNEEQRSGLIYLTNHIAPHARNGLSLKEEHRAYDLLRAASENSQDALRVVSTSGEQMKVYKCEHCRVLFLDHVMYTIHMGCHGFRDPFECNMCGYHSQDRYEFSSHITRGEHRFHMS
# T6 sequence (Q96SW2 whole entry): as the sequence (Q96SW2 whole entry) above
# T6 sequence (Q16531 whole entry partner): as the sequence (Q16531 whole entry partner) above
# Summary of the method: as §1
# [1] = molecular target: T7, human Cereblon WT GST-tagged protein (Homo sapiens, UniProt Q96SW2); assay: CRBN binding, HTRF (CEREBLON BINDING kit); settings: Table II-2, CRBN binding screening, HTRF
# T7 construct: purchased CISBIO 64BDCRBNPEH
# T7 sequence (Q96SW2 whole entry): as the sequence (Q96SW2 whole entry) above
# Summary of the method: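 After 3 h at room temperature, emission at 665 and 620 nm was measured in a homogeneous time-resolved fluorescence format. Compounds competed with a Thalidomide-Re probe for GST-tagged wild-type human CRBN, which was labelled with a Eu anti-GST antibody.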
# [2] = MCF7, CCK-8, read-out: Inhibitory activity (IC50) on tumor cell proliferation, MCF-7
Structure (SMILES),IC50 (MCF7; [2]),"inhibition at 0.5 µM ([1]; at 0.5µM, read-out: Inhibition rate (%) at 0.5µM)","inhibition at 2 µM ([1]; at 2 µM, read-out: Inhibition rate (%) at 2 µM)",Degradation of substrate protein CKla (substrate protein remaining %) (CK1a),Degradation of substrate protein IKZF2 (substrate protein remaining %) (IKZF2),"IC50 (MCF7; MCF7, read-out: Inhibitory activity (IC50) on tumor cell proliferation, MCF-7)",Degradation of substrate protein IKZF3 (substrate protein remaining %) (IKZF3),Degradation of substrate protein GSPT1 (substrate protein remaining %) (GSPT1),Degradation of substrate protein WEE1 (substrate protein remaining %) (WEE1),Degradation of substrate protein IKZF1 (substrate protein remaining %) (IKZF1)
"CC(C)(C)[Si](C)(C)OCc1ccc(NC2CCC(=O)NC2=O)nn1 (stereo not drawn) [GT-07726, 3-((6-(((tert-Butyldimethylsilyl)oxy)methyl)pyridazin-3-yl)amino)piperidine-2,6-dione]",–,–,–,B (B is defined as substrate protein remaining % > 80%),A (A is defined as 0% ≤ substrate protein remaining % ≤ 80%),1000 to 5000 nM,A (A is defined as 0% ≤ substrate protein remaining % ≤ 80%),B (B is defined as substrate protein remaining % > 80%),A (A is defined as 0% ≤ substrate protein remaining % ≤ 80%),A (A is defined as 0% ≤ substrate protein remaining % ≤ 80%)
"O=Cc1cccnc1NC1CCC(=O)NC1=O (stereo not drawn) [GT-07447, 2-((2,6-Dioxopiperidin-3-yl)amino)nicotinaldehyde]",1000 to 5000 nM,–,–,A (A is defined as 0% ≤ substrate protein remaining % ≤ 80%),A (A is defined as 0% ≤ substrate protein remaining % ≤ 80%),–,A (A is defined as 0% ≤ substrate protein remaining % ≤ 80%),A (A is defined as 0% ≤ substrate protein remaining % ≤ 80%),A (A is defined as 0% ≤ substrate protein remaining % ≤ 80%),A (A is defined as 0% ≤ substrate protein remaining % ≤ 80%)
"O=C1CCC(Nc2cc(CO)ccn2)C(=O)N1 (stereo not drawn) [GT-07366, 3-((4-(Hydroxymethyl)pyridin-2-yl)amino)piperidine-2,6-dione]",1000 to 5000 nM,–,–,A (A is defined as 0% ≤ substrate protein remaining % ≤ 80%),B (B is defined as substrate protein remaining % > 80%),–,B (B is defined as substrate protein remaining % > 80%),A (A is defined as 0% ≤ substrate protein remaining % ≤ 80%),B (B is defined as substrate protein remaining % > 80%),B (B is defined as substrate protein remaining % > 80%)
"O=C1CCC(Nc2ccc(CO)cn2)C(=O)N1 (stereo not drawn) [GT-07551, 3-((5-(Hydroxymethyl)pyridin-2-yl)amino)piperidine-2,6-dione]",1000 to 5000 nM,–,–,B (B is defined as substrate protein remaining % > 80%),A (A is defined as 0% ≤ substrate protein remaining % ≤ 80%),–,B (B is defined as substrate protein remaining % > 80%),B (B is defined as substrate protein remaining % > 80%),A (A is defined as 0% ≤ substrate protein remaining % ≤ 80%),B (B is defined as substrate protein remaining % > 80%)
"O=C1CCC(c2cncc(CCl)c2)C(=O)N1 (stereo not drawn) [GT-06991, 3-(5-(Chloromethyl)pyridin-3-yl)piperidine-2,6-dione]",–,30 to 40%,53 to 60%,B (B is defined as substrate protein remaining % > 80%),A (A is defined as 0% ≤ substrate protein remaining % ≤ 80%),–,B (B is defined as substrate protein remaining % > 80%),B (B is defined as substrate protein remaining % > 80%),B (B is defined as substrate protein remaining % > 80%),B (B is defined as substrate protein remaining % > 80%)
"O=C1CCC(Nc2ncncc2CO)C(=O)N1 (stereo not drawn) [GT-07727, 3-((5-(Hydroxymethyl)pyrimidin-4-yl)amino)piperidine-2,6-dione]",1000 to 5000 nM,–,–,B (B is defined as substrate protein remaining % > 80%),A (A is defined as 0% ≤ substrate protein remaining % ≤ 80%),–,A (A is defined as 0% ≤ substrate protein remaining % ≤ 80%),B (B is defined as substrate protein remaining % > 80%),A (A is defined as 0% ≤ substrate protein remaining % ≤ 80%),A (A is defined as 0% ≤ substrate protein remaining % ≤ 80%)
"O=C1CCC(c2ncccc2CO)C(=O)N1 (stereo not drawn) [GT-07370, 3-(3-(Hydroxymethyl)pyridin-2-yl)piperidine-2,6-dione]",1000 to 5000 nM,–,–,A (A is defined as 0% ≤ substrate protein remaining % ≤ 80%),B (B is defined as substrate protein remaining % > 80%),–,B (B is defined as substrate protein remaining % > 80%),A (A is defined as 0% ≤ substrate protein remaining % ≤ 80%),B (B is defined as substrate protein remaining % > 80%),B (B is defined as substrate protein remaining % > 80%)

# Continued, in another order:
IC50 (MCF7; [2]),"inhibition at 0.5 µM ([1]; at 0.5µM, read-out: Inhibition rate (%) at 0.5µM)","inhibition at 2 µM ([1]; at 2 µM, read-out: Inhibition rate (%) at 2 µM)",Structure (SMILES),Degradation of substrate protein CKla (substrate protein remaining %) (CK1a),Degradation of substrate protein IKZF2 (substrate protein remaining %) (IKZF2),"IC50 (MCF7; MCF7, read-out: Inhibitory activity (IC50) on tumor cell proliferation, MCF-7)",Degradation of substrate protein IKZF3 (substrate protein remaining %) (IKZF3),Degradation of substrate protein GSPT1 (substrate protein remaining %) (GSPT1),Degradation of substrate protein WEE1 (substrate protein remaining %) (WEE1),Degradation of substrate protein IKZF1 (substrate protein remaining %) (IKZF1)
1000 to 5000 nM,–,–,"O=C1CCN(c2cnc(CO)c(F)c2)C(=O)N1 [GT-07555, 1-(5-Fluoro-6-(hydroxymethyl)pyridin-3-yl)dihydropyrimidine-2,4(1H,3H)-dione]",A (A is defined as 0% ≤ substrate protein remaining % ≤ 80%),A (A is defined as 0% ≤ substrate protein remaining % ≤ 80%),–,A (A is defined as 0% ≤ substrate protein remaining % ≤ 80%),A (A is defined as 0% ≤ substrate protein remaining % ≤ 80%),A (A is defined as 0% ≤ substrate protein remaining % ≤ 80%),A (A is defined as 0% ≤ substrate protein remaining % ≤ 80%)
1000 to 5000 nM,–,–,"NCc1cncc(N2CCC(=O)NC2=O)c1 [GT-07077, 1-(5-(Aminomethyl)pyridin-3-yl)dihydropyrimidine-2,4(1H,3H)-dione]",B (B is defined as substrate protein remaining % > 80%),B (B is defined as substrate protein remaining % > 80%),–,B (B is defined as substrate protein remaining % > 80%),A (A is defined as 0% ≤ substrate protein remaining % ≤ 80%),B (B is defined as substrate protein remaining % > 80%),B (B is defined as substrate protein remaining % > 80%)
1000 to 5000 nM,–,–,"O=C1CCC(Nc2cc(CO)c(F)cn2)C(=O)N1 (stereo not drawn) [GT-07725, 3-((5-fluoro-4-(hydroxymethyl)pyridin-2-yl)amino)piperidine-2,6-dione]",B (B is defined as substrate protein remaining % > 80%),A (A is defined as 0% ≤ substrate protein remaining % ≤ 80%),–,A (A is defined as 0% ≤ substrate protein remaining % ≤ 80%),A (A is defined as 0% ≤ substrate protein remaining % ≤ 80%),A (A is defined as 0% ≤ substrate protein remaining % ≤ 80%),A (A is defined as 0% ≤ substrate protein remaining % ≤ 80%)
1000 to 5000 nM,–,–,"O=C1CCC(c2cnc(CO)c(F)c2)C(=O)N1 (stereo not drawn) [GT-07049, 3-(5-Fluoro-6-(hydroxymethyl)pyridin-3-yl)piperidine-2,6-dione]",A (A is defined as 0% ≤ substrate protein remaining % ≤ 80%),A (A is defined as 0% ≤ substrate protein remaining % ≤ 80%),–,A (A is defined as 0% ≤ substrate protein remaining % ≤ 80%),A (A is defined as 0% ≤ substrate protein remaining % ≤ 80%),B (B is defined as substrate protein remaining % > 80%),B (B is defined as substrate protein remaining % > 80%)
